In this assay the target is Type-1 angiotensin II receptor (Homo sapiens) (UniProt P30556). The assay can be described thus: AT1 receptor agonist selectivity testing, SAR follow-up, selectivity assay for APJ receptor agonist project, cell-based, CHO-K1 AGTR1, beta-arrestin, luminescence, set 5 (AID 504532). Particulars: CHO-K1 AGTR1 beta-arrestin PathHunter, 90 min.

Calls of active or inactive are those of the source.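 The calls were made as follows: active = mean EC50 below 10 µM; inactive = the rest.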 Where only a bound is given, the exact number is not on record here.

Sequence of Type-1 angiotensin II receptor (Homo sapiens) (P30556 whole entry, looked up): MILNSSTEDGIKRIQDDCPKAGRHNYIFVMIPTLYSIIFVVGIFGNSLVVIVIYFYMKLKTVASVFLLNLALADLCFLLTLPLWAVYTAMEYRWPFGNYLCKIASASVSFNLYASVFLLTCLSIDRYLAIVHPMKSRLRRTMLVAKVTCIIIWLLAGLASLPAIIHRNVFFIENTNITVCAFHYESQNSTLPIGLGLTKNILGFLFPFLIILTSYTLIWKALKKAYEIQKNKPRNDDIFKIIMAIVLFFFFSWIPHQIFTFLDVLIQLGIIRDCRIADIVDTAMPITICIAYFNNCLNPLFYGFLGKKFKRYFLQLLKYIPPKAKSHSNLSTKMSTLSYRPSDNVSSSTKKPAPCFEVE

As a reminder, the EC50 is the concentration that produces a half-maximal response. As for `CC1=CC(=O)C(C(C)(C)C)=C/C1=N/OS(=O)(=O)c1cccc(C#N)c1`, the EC50 is > 79 µM (inactive). As to `COc1cccc(S(=O)(=O)O/N=C2\C=C(C(C)C)C(=O)C=C2C)c1`, the EC50 was > 79 µM (inactive). The same measure for `N#Cc1ccc(S(=O)(=O)ON=C2C=CC(=O)C(c3ccccc3)=C2)cc1`: > 79 µM (inactive); for `CC1=CC(=O)C(C(C)C)=C/C1=N/OS(=O)(=O)c1cccc(Br)c1`: > 79 µM (inactive); for `CC1=CC(=O)C(C(C)(C)C)=C/C1=N\OS(=O)(=O)c1c(Cl)cccc1Cl`: > 79 µM (inactive). Regarding `CC1=CC(=O)C(C(C)(C)C)=C/C1=N\OS(=O)(=O)c1ccccc1Cl`, the EC50 is > 79 µM (inactive). As for `CC1=CC(=O)C(C2CCCCC2)=C/C1=N/OS(=O)(=O)c1cccc(Br)c1`, the EC50 is > 79 µM (inactive).

In the case of `CC1=CC(=O)C(C(C)(C)C)=C/C1=N\OS(=O)(=O)c1cccc(Cl)c1`, the EC50 was > 79 µM (inactive). Consider `CC1=CC(=O)C(C2CCCCC2)=C/C1=N/OS(=O)(=O)c1cccc(C)c1`, for which the EC50 is > 79 µM (inactive). The same measure for `CC1=CC(=O)C(C(C)C)=C/C1=N\OS(=O)(=O)c1cn(C)cn1`: > 79 µM (inactive).

In the case of `CC1=CC(=O)C(C(C)C)=C/C1=N\OS(=O)(=O)c1ccccc1Cl`, the EC50 is > 79 µM (inactive). Consider `CC1=CC(=O)C(C2CCCCC2)=C/C1=N\OS(=O)(=O)c1ccccc1Cl`, for which the EC50 is > 79 µM (inactive). The same measure for `CC1=CC(=O)C(C(C)C)=C/C1=N/OS(=O)(=O)c1cccc(C)c1`: > 79 µM (inactive); for `CC1=CC(=O)C(C2CCCCC2)=C/C1=N\OS(=O)(=O)c1c(Cl)cccc1Cl`: > 79 µM (inactive).

Consider `COc1cccc(S(=O)(=O)O/N=C2\C=C(C3CCCCC3)C(=O)C=C2C)c1`, for which the EC50 was > 79 µM (inactive). In the case of `CC1=CC(=O)C(C(C)C)=C/C1=N/OS(=O)(=O)c1cccc(C#N)c1`, the EC50 was > 79 µM (inactive). Consider `Cc1cc(O)c(C(C)(C)C)cc1N=O`, for which the EC50 was > 79 µM (inactive). For `CC1=CC(=O)C(C2CCCCC2)=C/C1=N\OS(=O)(=O)c1cccc(Cl)c1`, the EC50 is > 79 µM (inactive). Turning to `CC1=CC(=O)C(C(C)C)=C/C1=N\OS(=O)(=O)c1cccc(Cl)c1`, the EC50 was > 79 µM (inactive). Regarding `CC1=CC(=O)C(C2CCCCC2)=C/C1=N/OS(=O)(=O)c1cccc(C#N)c1`, the EC50 is > 79 µM (inactive). Take `Cc1cc(N=O)c(C(C)C)cc1O`: the EC50 was > 79 µM (inactive). As for `COc1cccc(S(=O)(=O)O/N=C2\C=C(C(C)(C)C)C(=O)C=C2C)c1`, the EC50 was > 79 µM (inactive). For `CC1=CC(=O)C(C(C)(C)C)=C/C1=N/OS(=O)(=O)c1cccc(C)c1` the value was > 79 µM (inactive). Turning to `CC1=CC(=O)C(C(C)C)=C/C1=N\OS(=O)(=O)c1c(Cl)cccc1Cl`, the EC50 is > 79 µM (inactive). For the molecule `CC1=CC(=O)C(C(C)C)=C/C1=N\OS(=O)(=O)C1CCCCC1`, the EC50 was > 79 µM (inactive).

In the case of `CC(C)C1=CC(=NOS(=O)(=O)c2ccccc2)C=CC1=O`, the EC50 is > 79 µM (inactive). For `CC1=CC(=O)C(C2CCCCC2)=C/C1=N\OS(=O)(=O)c1cn(C)cn1`, the EC50 was > 79 µM (inactive). As for `CC1=CC(=O)C(C(C)(C)C)=C/C1=N\OS(=O)(=O)C1CCCCC1`, the EC50 was > 79 µM (inactive). `CC1=CC(=O)C(C(C)(C)C)=C/C1=N\OS(=O)(=O)c1cn(C)cn1`: the EC50 is > 79 µM (inactive). As for `O=C1C=CC(=NOS(=O)(=O)c2ccccc2)C=C1c1ccccc1`, the EC50 is > 79 µM (inactive). With `CC1=CC(=O)C(C(C)(C)C)=C/C1=N/OS(=O)(=O)c1cccc(Br)c1`, the EC50 is > 79 µM (inactive).

Source of the values: PubChem BioAssay AID504532 (Sanford-Burnham Center for Chemical Genomics, 2011).
